Read-outs that look alike come from different tables or passages of the source.
How the values were obtained:
[1] = target: T1, human kappa opioid receptor (hKOR) (Homo sapiens, UniProt P41145); assay: Kappa radioligand binding assay ([3H]diprenorphine, CHO cell membranes); conditions: for Selectivity hMOR/hKOR: selectivity ratio calculated by dividing the hMOR Ki by the hKOR Ki
T1 construct: expressed in transfected cells; host or cells: CHO cells
Method: (§1) Kappa and Mu Radioligand Binding Assay:
(§2) Binding assays on membranes from CHO cells expressing human kappa or mu opioid receptors were performed according to standard procedures. Frozen cell paste was homogenized in 50 mM Tris HCl buffer (pH 7.4 @ 4 degrees C.) containing 2.0 mM MgCl2 using a Polytron and spun in a centrifuge at 40,000 g for ten minutes. The final pellet was resuspended in assay buffer (50 mM Tris HCl buffer, pH 7.4, containing 1 mM EDTA, 5 mM MgCl2). Incubations were initiated by the addition of membranes to 96-well plates containing test drugs and [^3H]diprenorphine (0.6 nM final concentration for kappa opioid receptor and 0.5 nM final concentration for mu) in a final volume of 250 μl. Non-specific binding was determined by radioligand binding in the presence of a saturating concentration of naltrexone (10 μM). After a one hour incubation period at room temperature, assay samples were rapidly filtered through PEI coated, GF/B fired Unifilter plates (PerkinElmer) and rinsed with ice-cold 50 mM Tris buffer (pH 7.4). Membrane bound [^3H]diprenorphine levels were determined by liquid scintillation counting of the filterplates in Ecolume scintillation fluid. The IC50 value (concentration at which 50% inhibition of specific binding occurs) was calculated using a logistic 4 parameter fit model of the concentration-response data. Ki values were calculated according to the Cheng Prusoff equation, Ki=IC50/(1+(L/Kd)), where L is the concentration of the radioligand used in the experiment and the Kd value is the dissociation constant for the radioligand (determined previously by saturation analysis).

[2] = target: T2, human mu opioid receptor (hMOR) (Homo sapiens, UniProt P35372); assay: Mu radioligand binding assay ([3H]diprenorphine, CHO cell membranes)
T2 construct: expressed in transfected cells; host or cells: CHO cells
Method: as §1
as §2, with “The IC50 value (concentration at which 50% inhibition of specific binding occurs) was calculated using a logistic 4 parameter fit model of the concentration-response data.” left out

[3] = Table 19, geometric mean of 2-6 determinations unless otherwise indicated (Example 3: >=7), read-out: hKOR binding assay Ki
[4] = Table 19, geometric mean of 2-6 determinations unless otherwise indicated (Example 3: >=7), read-out: hMOR binding assay Ki
[5] = radioligand binding, [3H]diprenorphine, read-out: hKOR Ki
[6] = radioligand binding, [3H]diprenorphine, read-out: hMOR Ki
[7] = Table 20, radioligand binding, read-out: hKOR binding assay Ki
[8] = Table 20, radioligand binding, read-out: hMOR binding assay Ki

T2 sequence (P35372 whole entry): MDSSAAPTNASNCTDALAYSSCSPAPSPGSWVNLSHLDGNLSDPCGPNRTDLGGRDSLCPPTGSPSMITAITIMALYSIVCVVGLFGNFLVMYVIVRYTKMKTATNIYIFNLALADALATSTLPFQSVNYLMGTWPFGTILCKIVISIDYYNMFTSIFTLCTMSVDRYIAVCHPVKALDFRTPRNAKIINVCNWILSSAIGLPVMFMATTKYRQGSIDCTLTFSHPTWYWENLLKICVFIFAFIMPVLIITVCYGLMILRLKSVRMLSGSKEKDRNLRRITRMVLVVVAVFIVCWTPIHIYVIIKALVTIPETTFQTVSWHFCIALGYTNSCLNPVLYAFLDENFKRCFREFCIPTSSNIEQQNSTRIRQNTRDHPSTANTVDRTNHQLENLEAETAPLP
T1 sequence (P41145 whole entry): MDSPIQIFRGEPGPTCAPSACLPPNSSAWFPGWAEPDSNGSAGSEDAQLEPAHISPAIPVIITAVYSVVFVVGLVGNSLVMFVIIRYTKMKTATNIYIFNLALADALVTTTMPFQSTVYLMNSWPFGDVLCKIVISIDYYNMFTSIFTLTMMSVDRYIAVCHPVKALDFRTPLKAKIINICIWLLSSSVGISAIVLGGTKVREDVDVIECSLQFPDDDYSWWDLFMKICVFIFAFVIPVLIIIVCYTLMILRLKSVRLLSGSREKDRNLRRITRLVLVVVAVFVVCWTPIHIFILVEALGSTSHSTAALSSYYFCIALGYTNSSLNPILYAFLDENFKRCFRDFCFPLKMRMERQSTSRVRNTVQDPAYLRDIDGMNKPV

Ki [1, 3] | Ki [2, 4] | Compound | other results
0.871 nM | 20.2 nM | Cc1nn(C)cc1C1CCCN1Cc1ccc(Oc2ccc(C(N)=O)cc2)c(F)c1 (racemic) [Example 1, (+/−)-4-(4-{[2-(1,3-Dimethyl-1H-pyrazol-4-yl)pyrrolidin-1-yl]methyl}-2-fluorophenoxy) benzamide] | –
– | – | COc1nn(C)cc1C1CCCN1Cc1ccc(Oc2ccc(C(N)=O)c(O)c2)cc1 (single isomer, unassigned) [enantiomer of Example 33, 2-hydroxy-4-(4-{[2-(3-methoxy-1-methyl-1H-pyrazol-4-yl)pyrrolidin-1-yl]methyl}phenoxy)benzamide] | Ki [1, 5]: 28.7 nM; Ki [2, 6]: 308 nM
1.69 nM | 52.2 nM | COc1nn(C)cc1C1CCCN1Cc1ccc(Oc2ccc(C(N)=O)c(O)c2)cc1 (single isomer, unassigned) [Example 33, 2-hydroxy-4-(4-{[2-(3-methoxy-1-methyl-1H-pyrazol-4-yl)pyrrolidin-1-yl]methyl}phenoxy)benzamide] | –
16.8 nM | 73.6 nM | Cc1nn(C)cc1C1CCCN1Cc1ccc(Oc2ccc(C(N)=O)cc2F)cc1 (single isomer, unassigned) [Example 5, 4-(4-{[2-(1,3-Dimethyl-1H-pyrazol-4-yl)pyrrolidin-1-yl]methyl}phenoxy)-3-fluorobenzamide] | –
– | – | COc1nn(C)cc1C1CCCN1Cc1ccc(Oc2ccc(C(N)=O)cc2)c(F)c1 (single isomer, unassigned) [enantiomer of Example 32, 4-(2-fluoro-4-{[2-(3-methoxy-1-methyl-1H-pyrazol-4-yl)pyrrolidin-1-yl]methyl}phenoxy)benzamide] | Ki [1, 5]: 0.629 nM; Ki [2, 6]: 13.7 nM
– | – | COc1nn(C)cc1C1COCCN1Cc1ccc(Oc2ccc(C(N)=O)cc2F)cc1 (single isomer, unassigned) [enantiomer of Example 20, 3-fluoro-4-(4-{[3-(3-methoxy-1-methyl-1H-pyrazol-4-yl)morpholin-4-yl]methyl}phenoxy)benzamide] | Ki [1, 5]: 145 nM; Ki [2, 6]: > 564 nM
8.53 nM | 20.9 nM | Cc1c(C2CCCN2Cc2ccc(Oc3ccc(C(N)=O)cc3)cc2)cnn1C (racemic) [Example 36] | –
4.88 nM | 77.9 nM | COc1nn(C)cc1C1CC(C)CN1Cc1ccc(Oc2ccc(C(N)=O)cc2F)cc1 (single isomer, unassigned) [Example 28, 3-fluoro-4-(4-{[2-(3-methoxy-1-methyl-1H-pyrazol-4-yl)-4-methylpyrrolidin-1-yl]methyl}phenoxy)benzamide] | –
3.95 nM | 27.8 nM | Cc1nn(C)cc1C1CCCN1Cc1ccc(Oc2ccc(C(N)=O)cc2)c(F)c1 (single isomer, unassigned; (+)) [Example 2, (+)-4-(4-{[2-(1,3-Dimethyl-1H-pyrazol-4-yl)pyrrolidin-1-yl]methyl}-2-fluorophenoxy)benzamide] | –
139 nM | 299 nM | Cc1cc(C2CCCN2Cc2ccc(Oc3ccc(C(N)=O)cc3F)cc2)no1 (stereo not drawn) [Example 40] | KOR potency, in words [1]: low KOR potency; Ki [1, 7]: 139 nM; Selectivity hMOR/hKOR [1]: 2.2; Ki [2, 8]: 299 nM
2.07 nM | 121 nM | Cc1cc([C@@H]2CCCN2Cc2ccc(Oc3ccc(C(N)=O)c(O)c3)cc2)n(C)n1 [Example 27, 4-(4-{[(2S)-2-(1,3-dimethyl-1H-pyrazol-5-yl)pyrrolidin-1-yl]methyl}phenoxy)-2-hydroxybenzamide] | –
5.71 nM | 196 nM | COc1nn(C)cc1C1CCCN1Cc1ccc(Oc2ccc(C(N)=O)cc2F)cc1 (racemic) [Example 7, (+/−)-3-Fluoro-4-(4-{[2-(3-methoxy-1-methyl-1H-pyrazol-4-yl)pyrrolidin-1-yl]methyl}phenoxy)benzamide] | –
0.688 nM | 116 nM | Cc1nn(C)nc1C1CCCN1Cc1ccc(Oc2ccc(C(N)=O)cc2)cc1 (single isomer, unassigned) [Example 38, 4-(4-{[2-(2,5-dimethyl-2H-1,2,3-triazol-4-yl)pyrrolidin-1-yl]methyl}phenoxy)benzamide] | selectivity for KOR over MOR, in words [1]: more selective than the phenyl examples, Comparators A and B; Ki [1, 7]: 0.7 nM; Selectivity hMOR/hKOR [1]: 168; Ki [2, 8]: 116 nM
– | – | Cc1nsc(C2CCCN2Cc2ccc(Oc3ccc(C(N)=O)cc3)cc2)n1 (single isomer, unassigned) [enantiomer of Example 41, 4-(4-{[2-(3-methyl-1,2,4-thiadiazol-5-yl)pyrrolidin-1-yl]methyl}phenoxy)benzamide] | Ki [1, 5]: > 388 nM; Ki [2, 6]: > 558 nM
0.508 nM | 3.98 nM | Cn1ccc([C@@H]2CCCN2Cc2ccc(Oc3ccc(C(N)=O)c(O)c3)cc2)n1 [Example 34, 2-hydroxy-4-(4-{[(2S)-2-(1-methyl-1H-pyrazol-3-yl)pyrrolidin-1-yl]methyl}phenoxy) benzamide] | –
– | – | Cc1c(C2CCCN2Cc2ccc(Oc3ccc(C(N)=O)cc3F)cc2)cnn1C (single isomer, unassigned) [enantiomer of Example 35, 4-(4-{[2-(1,5-dimethyl-1H-pyrazol-4-yl)pyrrolidin-1-yl]methyl}phenoxy)-3-fluorobenzamide] | Ki [1, 5]: 92.8 nM; Ki [2, 6]: 245 nM
27 nM | 108 nM | Cc1nn(C)cc1C1CCCN1Cc1ccc(Oc2ccc(C(N)=O)c(O)c2)cc1 (single isomer, unassigned; (+)) [Example 17, (+)-4-(4-{[2-(1,3-Dimethyl-1H-pyrazol-4-yl)pyrrolidin-1-yl]methyl}phenoxy)-2-hydroxybenzamide] | –
– | – | COc1cc(C2CCCN2Cc2ccc(Oc3ccc(C(N)=O)cc3)cc2)n(C)n1 (single isomer, unassigned) [enantiomer of Example 46, 4-(4-{[2-(3-methoxy-1-methyl-1H-pyrazol-5-yl)pyrrolidin-1-yl]methyl}phenoxy)benzamide] | Ki [1, 5]: 111 nM; Ki [2, 6]: 120 nM
2.9 nM | 18.4 nM | Cc1c(C2CCCN2Cc2ccc(Oc3ccc(C(N)=O)cc3F)cc2)cnn1C (single isomer, unassigned) [Example 35, 4-(4-{[2-(1,5-dimethyl-1H-pyrazol-4-yl)pyrrolidin-1-yl]methyl}phenoxy)-3-fluorobenzamide] | selectivity for KOR over MOR (hMOR Ki divided by hKOR Ki) [1]: 2.5 fold; Ki [1, 7]: 2.9 nM; Selectivity hMOR/hKOR [1]: 6.4; Ki [2, 8]: 18.4 nM
4.52 nM | 95.1 nM | COc1nn(C)cc1C1COCCN1Cc1ccc(Oc2ccc(C(N)=O)cc2)c(F)c1 (single isomer, unassigned) [Example 22, 4-(2-fluoro-4-{[3-(3-methoxy-1-methyl-1H-pyrazol-4-yl)morpholin-4-yl]methyl}phenoxy)benzamide] | –
– | – | COc1nn(C)cc1C1CCCCN1Cc1ccc(Oc2ccc(C(N)=O)cc2)cc1 (single isomer, unassigned) [enantiomer of Example 21, 4-(4-{[2-(3-methoxy-1-methyl-1H-pyrazol-4-yl)piperidin-1-yl]methyl}phenoxy)benzamide] | Ki [1, 5]: 15.5 nM; Ki [2, 6]: 135 nM
0.367 nM | 40.9 nM | Cc1nn(C)nc1C1CCCN1Cc1ccc(Oc2ccc(C(N)=O)cc2)c(F)c1 (single isomer, unassigned) [Example 39, 4-(4-{[2-(2,5-dimethyl-2H-1,2,3-triazol-4-yl)pyrrolidin-1-yl]methyl}-2-fluorophenoxy)benzamide] | –
22.5 nM | > 352 nM | COc1nn(C)cc1C1CCCN1Cc1ccc(Oc2ccc(C(N)=O)cc2F)cc1 (single isomer, unassigned; (+)) [Example 9, (+)-3-Fluoro-4-(4-{[2-(3-methoxy-1-methyl-1H-pyrazol-4-yl)pyrrolidin-1-yl]methyl}phenoxy)benzamide] | –
6.08 nM | 31.3 nM | COc1n[nH]cc1C1CCCN1Cc1ccc(Oc2ccc(C(N)=O)cc2)cc1 (single isomer, unassigned; (-)) [Example 14, (−)-4-(4-{[2-(3-Methoxy-1H-pyrazol-4-yl)pyrrolidin-1-yl]methyl}phenoxy)benzamide] | –

Reference: patent US10316021B2, “Heteroarylphenoxy benzamide kappa opioid ligands” (Pfizer Inc., priority 2016, dated 2019)
